Experimental data from PubChem BioAssay AID328 (DTP/NCI, 2004).
Values joined by “and” are separate entries in the source; they are usually repeats but may differ in a detail not shown here. Identical values can stand only once. Inconclusive results and toxic doses are left out. The calls were made as follows: active = survival T/C of 150% or more; inactive = T/C below 125% in these data.

System: BDF1 mice, P388 leukemia ip, median survival T/C
Experiment: NCI In Vivo Anticancer Drug Screen. Data for tumor model P388 Leukemia (intraperitoneal) in B6D2F1 (BDF1) mice
Details: endpoint: median survival time, higher = longer survival
Procedure, shortened: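 T/C = treated-group survival ÷ vehicle-control survival; tumour transplanted into mice before dosing.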

[1] = dose: 100.0 mg/kg/injection, schedule: Q01DX009 (ip), vehicle: saline with Tween-80
[2] = dose: 200.0 mg/kg/injection, schedule: Q01DX009 (ip), vehicle: saline with Tween-80
[3] = dose: 100.0 mg/kg/injection, schedule: Q04DX003 (ip), vehicle: saline with Tween-80
[4] = dose: 200.0 mg/kg/injection, schedule: Q04DX003 (ip), vehicle: saline with Tween-80
[5] = dose: 12.5 mg/kg/injection, schedule: Q01DX009 (ip), vehicle: Klucel (hydroxypropylcellulose) (HPC)
[6] = dose: 25.0 mg/kg/injection, schedule: Q01DX009 (ip), vehicle: Klucel (hydroxypropylcellulose) (HPC)

Measured: T/C

CC1(C)OC2OC(COC(=O)c3ccccc3)C(=O)C2O1 (stereo not drawn)
inactive: [1] 92 % of control | [2] 92 % of control | dose: 400.0 mg/kg/injection, schedule: Q01DX009 (ip), vehicle: saline with Tween-80 101 % of control

CN(C(N)=O)c1c(O)nc(N)[nH]c1=O
inactive: dose: 12.5 mg/kg/injection, schedule: Q01DX009 (ip), vehicle: water 106 % of control | dose: 25.0 mg/kg/injection, schedule: Q04DX003 (ip), vehicle: water 106 % of control | dose: 50.0 mg/kg/injection, schedule: Q01DX009 (ip), vehicle: water 88 % of control | dose: 50.0 mg/kg/injection, schedule: Q04DX003 (ip), vehicle: water 100 % of control | dose: 100.0 mg/kg/injection, schedule: Q01DX009 (ip), vehicle: water 91 % of control | dose: 100.0 mg/kg/injection, schedule: Q04DX003 (ip), vehicle: water 106 % of control | dose: 200.0 mg/kg/injection, schedule: Q04DX003 (ip), vehicle: water 106 % of control

O=C(O)C1CCCN1C(=O)c1ccc(Cl)c(Cl)c1 (stereo not drawn)
inactive: dose: 50.0 mg/kg/injection, schedule: Q01DX005 (ip), vehicle: saline with Tween-80 100 % of control | dose: 100.0 mg/kg/injection, schedule: Q01DX005 (ip), vehicle: saline with Tween-80 93 % of control | dose: 200.0 mg/kg/injection, schedule: Q01DX005 (ip), vehicle: saline with Tween-80 99 % of control

CCOC1CC2c3ccccc3C1c1cccc[n+]12 (stereo not drawn)
inactive: dose: 9.37 mg/kg/injection, schedule: Q01DX009 (ip), vehicle: saline 108 % of control | dose: 18.75 mg/kg/injection, schedule: Q01DX009 (ip), vehicle: saline 108 % of control | dose: 37.5 mg/kg/injection, schedule: Q01DX009 (ip), vehicle: saline 91 % of control

O=c1c2oc3ccccc3c2cnn1CO
inactive: [1] 90 % of control | [2] 116 % of control

O=C(CC(=O)C(F)(F)F)c1ccc2c(c1)Cc1ccccc1-2
inactive: [3] 124 % of control | [4] 111 % of control

C=C1CC[N+]2(CC(C)C)CCCC12 (stereo not drawn)
inactive: dose: 12.5 mg/kg/injection, schedule: Q04DX003 (ip), vehicle: saline 107 % of control | dose: 25.0 mg/kg/injection, schedule: Q04DX003 (ip), vehicle: saline 102 % of control | dose: 50.0 mg/kg/injection, schedule: Q04DX003 (ip), vehicle: saline 106 % of control

Cc1ccc(C(=Nc2ccccc2)c2ccccc2C)cc1
inactive: dose: 100.0 mg/kg/injection, schedule: Q04DX002 (ip), vehicle: saline with Tween-80 88 % of control and 100 % of control | dose: 200.0 mg/kg/injection, schedule: Q04DX002 (ip), vehicle: saline with Tween-80 91 % of control | dose: 400.0 mg/kg/injection, schedule: Q04DX002 (ip), vehicle: saline with Tween-80 86 % of control

CCCCOCN(COCCCC)C12CC3CC(CC(C3)C1)C2
inactive: dose: 50.0 mg/kg/injection, schedule: Q01DX009 (ip), vehicle: saline with Tween-80 120 % of control

C=CCNc1ccc(C)cc1
inactive: [5] 110 % of control | [6] 116 % of control | dose: 50.0 mg/kg/injection, schedule: Q01DX009 (ip), vehicle: Klucel (hydroxypropylcellulose) (HPC) 116 % of control | [1] 122 % of control

S=c1sc(-c2ccccc2)c[se]1
inactive: dose: 25.0 mg/kg/injection, schedule: Q01DX009 (ip), vehicle: saline + Tween-80 + alcohol 107 % of control | dose: 50.0 mg/kg/injection, schedule: Q01DX009 (ip), vehicle: saline + Tween-80 + alcohol 105 % of control

CC(=O)OC(C)(C)/C=C/C(=O)[C@](C)(O)[C@H]1[C@H](O)C[C@@]2(C)[C@@H]3CC=C4[C@@H](C[C@H](O)C(=O)C4(C)C)[C@]3(C)C(=O)C[C@]12C
inactive: dose: 0.07 mg/kg/injection, schedule: Q01DX009 (ip), vehicle: saline 95 % of control | dose: 0.09 mg/kg/injection, schedule: Q04DX003 (ip), vehicle: saline 100 % of control | dose: 0.12 mg/kg/injection, schedule: Q01DX009 (ip), vehicle: saline 115 % of control | dose: 0.18 mg/kg/injection, schedule: Q01DX009 (ip), vehicle: saline 105 % of control | dose: 0.18 mg/kg/injection, schedule: Q01DX010 (ip), vehicle: carboxymethylcellulose (CMC) 120 % of control | dose: 0.18 mg/kg/injection, schedule: Q04DX003 (ip), vehicle: saline 104 % of control | dose: 0.25 mg/kg/injection, schedule: Q01DX010 (ip), vehicle: carboxymethylcellulose (CMC) 113 % of control | dose: 0.37 mg/kg/injection, schedule: Q01DX010 (ip), vehicle: carboxymethylcellulose (CMC) 100 % of control | dose: 0.5 mg/kg/injection, schedule: Q01DX010 (ip), vehicle: carboxymethylcellulose (CMC) 118 % of control | dose: 0.75 mg/kg/injection, schedule: Q01DX010 (ip), vehicle: carboxymethylcellulose (CMC) 115 % of control | dose: 1.5 mg/kg/injection, schedule: Q01DX010 (ip), vehicle: carboxymethylcellulose (CMC) 115 % of control | dose: 132.0 micrograms/kg/injection, schedule: Q01DX009 (ip), vehicle: saline 112 % of control | dose: 198.0 micrograms/kg/injection, schedule: Q01DX009 (ip), vehicle: saline 104 % of control

CC(=O)Nc1cc2c(cc1[N+](=O)[O-])-c1ccccc1C2O (stereo not drawn)
inactive: [1] 100 % of control | [3] 100 % of control | [2] 90 % of control | [4] 104 % of control | dose: 400.0 mg/kg/injection, schedule: Q04DX003 (ip), vehicle: saline with Tween-80 104 % of control

CC(=O)OC1=CCC(C(C)(C)C)CC1 (stereo not drawn)
inactive: dose: 5.15 mg/kg/injection, schedule: Q04DX003 (ip), vehicle: saline 100 % of control | dose: 6.25 mg/kg/injection, schedule: Q01DX009 (ip), vehicle: Klucel (hydroxypropylcellulose) (HPC) 100 % of control | dose: 10.31 mg/kg/injection, schedule: Q04DX003 (ip), vehicle: saline 90 % of control | [5] 100 % of control | dose: 20.62 mg/kg/injection, schedule: Q04DX003 (ip), vehicle: saline 90 % of control | [6] 100 % of control | dose: 35.0 mg/kg/injection, schedule: Q01DX009 (ip), vehicle: Klucel (hydroxypropylcellulose) (HPC) 91 % of control and 100 % of control | dose: 41.25 mg/kg/injection, schedule: Q04DX003 (ip), vehicle: Klucel (hydroxypropylcellulose) (HPC) 87 % of control | dose: 55.0 mg/kg/injection, schedule: Q01DX009 (ip), vehicle: Klucel (hydroxypropylcellulose) (HPC) 100 % of control | dose: 80.0 mg/kg/injection, schedule: Q01DX009 (ip), vehicle: Klucel (hydroxypropylcellulose) (HPC) 87 % of control

CC[CH2][Sn]([Cl])([Cl])[CH2]CC
inactive: dose: 0.1 mg/kg/injection, schedule: Q01DX009 (ip), vehicle: Klucel (hydroxypropylcellulose) (HPC) 100 % of control | dose: 0.2 mg/kg/injection, schedule: Q01DX009 (ip), vehicle: Klucel (hydroxypropylcellulose) (HPC) 113 % of control | dose: 0.25 mg/kg/injection, schedule: Q01DX009 (ip), vehicle: Klucel (hydroxypropylcellulose) (HPC) 90 % of control | dose: 0.4 mg/kg/injection, schedule: Q01DX009 (ip), vehicle: Klucel (hydroxypropylcellulose) (HPC) 113 % of control | dose: 0.5 mg/kg/injection, schedule: Q01DX009 (ip), vehicle: Klucel (hydroxypropylcellulose) (HPC) 100 % of control | dose: 1.0 mg/kg/injection, schedule: Q01DX009 (ip), vehicle: Klucel (hydroxypropylcellulose) (HPC) 113 % of control | dose: 2.0 mg/kg/injection, schedule: Q01DX009 (ip), vehicle: Klucel (hydroxypropylcellulose) (HPC) 122 % of control

O=C(CC(C(=O)c1ccccc1)N1CC1)c1ccccc1 (stereo not drawn)
inactive: dose: 50.0 mg/kg/injection, schedule: Q04DX003 (ip), vehicle: saline with Tween-80 90 % of control | [3] 90 % of control

CC(=O)OC1CCC2(C)C(CCc3ccoc3)=C(C)C(=O)CC2C1(C)C (stereo not drawn)
inactive: dose: 10.0 mg/kg/injection, schedule: Q01DX009 (ip), vehicle: saline + alcohol 105 % of control | dose: 20.0 mg/kg/injection, schedule: Q01DX009 (ip), vehicle: saline + alcohol 115 % of control | dose: 40.0 mg/kg/injection, schedule: Q01DX009 (ip), vehicle: saline + alcohol 105 % of control
